Source: US20220306659A1, “COMPOUND INHIBITING AND INDUCING DEGRADATION OF EGFR AND ALK” (BEIJING TIDE PHARMACEUTICAL CO., LTD., priority 2019, published 2022)

How the values were obtained:
Assay type in all cases: cell-based
[1] = target: Ba/F3(EGFR^Del19/T790M/C797S) cells (Homo sapiens, UniProt P00533, DEL746-750/T790M/C797S, cells depend on it); experiment: Assay of activity on Ba/F3 cells (CTG, 72 h); conditions: read-out: IC50 (nM) Ba/F3 (EGFR^Del19/T790M/C797S)
Summary of the method: (§1)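 Ba/F3 cells dependent on each EGFR triple mutant were exposed to 3-fold compound dilutions for 72 h at 37° C, 5% CO2, with CellTiter-Glo luminescence as the read-out.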

[2] = target: Ba/F3(EGFR^L858R/T790M/C797S) cells (Homo sapiens, UniProt P00533, T790M/C797S/L858R, cells depend on it); experiment: Assay of activity on Ba/F3 cells (CTG, 72 h); conditions: read-out: IC50 (nM) Ba/F3 (EGFR^L858R/T790M/C797S)
Summary of the method: as §1

Ba/F3(EML4-ALK) cells = target: T1, Ba/F3(EML4-ALK) cells (Homo sapiens, UniProt Q9UM73); experiment: Assay of activity on Ba/F3(EML4-ALK) cells (CTG, 72 h); conditions: read-out: IC50 (nM) Ba/F3(EML4-ALK)
T1 construct: fused on or other part: Q9HC35 (Echinoderm microtubule-associated protein-like 4)
Protocol: Assay of activity on Ba/F3(EML4-ALK) cells
(1) Ba/F3(EML4-ALK) cells were cultured according to the requirements of ATCC, incubated in an incubator at 37° C. and 5% CO2, and analyzed by index; cells with viability of >90% can be used in the assay, and cells were seeded in a 384-well plate (PerkinElmer, 6007680) with 700 cells/well, 30 μl/well.
(2) A compound stock solution was prepared, and diluted 3× to obtain a compound dilution; 30 nL of the serial dilution was added to a 384-well plate (784075, Greiner) by Echo 550, and cells were incubated in an incubator at 37° C. and 5% CO2 for 72 h.
(3) 30 μL of CTG was added to each well, and the 384-well plate was shaken on a Plate shaker (QILINBEIER, QB-9002); the 384-well plate was incubated in the dark at 37° C. and 5% CO2 for 30 min, and the chemiluminescence value was read by Envision (PerkinElmer, EnVision 2104).
The percent inhibition rate (% inhibition) was calculated by the formula below
LUMcmpd: Luminescence value of assay compound.
LUMpositive: Average LUM value of positive drug at a concentration of 10 μM.
LUM^vehicle: Average LUM value of negative control group without drug treatment.
The nonlinear regression curve (dose response-variable slope) between the value of inhibition rate (%) and the logarithm of compound concentration was fitted with graphpad prism 8.0, the effect dose curve of compound was drawn, and the IC50 value was calculated.
Y=Bottom+(Top−Bottom)/(1+10^((LogIC50−X)*HillSlope))
X-axis: logarithm of compound concentration; Y axis: inhibition rate (% inhibition).

T1 sequence (Q9UM73 whole entry, change not shown, the tested form may be a part): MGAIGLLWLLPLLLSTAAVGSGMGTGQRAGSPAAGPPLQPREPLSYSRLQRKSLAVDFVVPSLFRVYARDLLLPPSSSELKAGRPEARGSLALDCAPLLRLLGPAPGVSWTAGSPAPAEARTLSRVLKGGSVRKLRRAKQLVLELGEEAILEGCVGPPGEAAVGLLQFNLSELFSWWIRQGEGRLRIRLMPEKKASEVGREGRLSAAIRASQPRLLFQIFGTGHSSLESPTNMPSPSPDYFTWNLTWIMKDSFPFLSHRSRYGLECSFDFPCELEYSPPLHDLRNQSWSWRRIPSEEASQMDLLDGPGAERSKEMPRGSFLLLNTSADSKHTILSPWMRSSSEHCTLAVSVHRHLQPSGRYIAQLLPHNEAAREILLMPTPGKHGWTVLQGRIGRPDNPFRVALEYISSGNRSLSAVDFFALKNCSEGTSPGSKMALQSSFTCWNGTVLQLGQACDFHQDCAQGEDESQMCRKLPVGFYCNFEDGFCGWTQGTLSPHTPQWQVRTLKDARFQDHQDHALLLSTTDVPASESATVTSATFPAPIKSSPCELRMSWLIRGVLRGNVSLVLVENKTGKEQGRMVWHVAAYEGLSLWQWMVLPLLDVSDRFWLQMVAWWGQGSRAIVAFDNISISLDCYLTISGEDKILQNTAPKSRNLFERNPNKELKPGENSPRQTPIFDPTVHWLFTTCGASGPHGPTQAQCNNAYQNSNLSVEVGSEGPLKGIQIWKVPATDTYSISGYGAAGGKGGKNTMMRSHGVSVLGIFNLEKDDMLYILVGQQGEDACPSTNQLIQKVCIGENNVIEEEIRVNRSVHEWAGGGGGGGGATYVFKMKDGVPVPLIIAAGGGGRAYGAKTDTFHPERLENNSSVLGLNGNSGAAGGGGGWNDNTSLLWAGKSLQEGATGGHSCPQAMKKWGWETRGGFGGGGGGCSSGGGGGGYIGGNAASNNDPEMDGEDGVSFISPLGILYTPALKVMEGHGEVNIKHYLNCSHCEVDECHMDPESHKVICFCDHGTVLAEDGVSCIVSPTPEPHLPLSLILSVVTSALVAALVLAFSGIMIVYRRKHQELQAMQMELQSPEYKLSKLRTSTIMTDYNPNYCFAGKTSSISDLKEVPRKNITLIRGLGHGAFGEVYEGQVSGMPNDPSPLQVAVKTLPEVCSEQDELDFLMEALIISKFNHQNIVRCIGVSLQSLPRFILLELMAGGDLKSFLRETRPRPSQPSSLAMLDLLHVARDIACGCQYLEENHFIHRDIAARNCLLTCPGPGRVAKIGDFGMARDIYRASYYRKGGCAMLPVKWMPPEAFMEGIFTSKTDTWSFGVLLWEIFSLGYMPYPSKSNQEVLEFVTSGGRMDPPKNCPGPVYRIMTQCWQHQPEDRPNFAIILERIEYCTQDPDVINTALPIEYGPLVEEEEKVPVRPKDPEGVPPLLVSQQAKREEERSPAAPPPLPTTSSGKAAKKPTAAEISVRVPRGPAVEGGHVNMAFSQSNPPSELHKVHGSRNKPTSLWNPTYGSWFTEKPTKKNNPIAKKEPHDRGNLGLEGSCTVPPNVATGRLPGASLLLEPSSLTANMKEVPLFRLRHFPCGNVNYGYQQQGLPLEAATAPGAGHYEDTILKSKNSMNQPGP
Chain of Ba/F3(EGFR^Del19/T790M/C797S) cells (P00533 with tags, fused parts or gaps DEL746-750/T790M/C797S): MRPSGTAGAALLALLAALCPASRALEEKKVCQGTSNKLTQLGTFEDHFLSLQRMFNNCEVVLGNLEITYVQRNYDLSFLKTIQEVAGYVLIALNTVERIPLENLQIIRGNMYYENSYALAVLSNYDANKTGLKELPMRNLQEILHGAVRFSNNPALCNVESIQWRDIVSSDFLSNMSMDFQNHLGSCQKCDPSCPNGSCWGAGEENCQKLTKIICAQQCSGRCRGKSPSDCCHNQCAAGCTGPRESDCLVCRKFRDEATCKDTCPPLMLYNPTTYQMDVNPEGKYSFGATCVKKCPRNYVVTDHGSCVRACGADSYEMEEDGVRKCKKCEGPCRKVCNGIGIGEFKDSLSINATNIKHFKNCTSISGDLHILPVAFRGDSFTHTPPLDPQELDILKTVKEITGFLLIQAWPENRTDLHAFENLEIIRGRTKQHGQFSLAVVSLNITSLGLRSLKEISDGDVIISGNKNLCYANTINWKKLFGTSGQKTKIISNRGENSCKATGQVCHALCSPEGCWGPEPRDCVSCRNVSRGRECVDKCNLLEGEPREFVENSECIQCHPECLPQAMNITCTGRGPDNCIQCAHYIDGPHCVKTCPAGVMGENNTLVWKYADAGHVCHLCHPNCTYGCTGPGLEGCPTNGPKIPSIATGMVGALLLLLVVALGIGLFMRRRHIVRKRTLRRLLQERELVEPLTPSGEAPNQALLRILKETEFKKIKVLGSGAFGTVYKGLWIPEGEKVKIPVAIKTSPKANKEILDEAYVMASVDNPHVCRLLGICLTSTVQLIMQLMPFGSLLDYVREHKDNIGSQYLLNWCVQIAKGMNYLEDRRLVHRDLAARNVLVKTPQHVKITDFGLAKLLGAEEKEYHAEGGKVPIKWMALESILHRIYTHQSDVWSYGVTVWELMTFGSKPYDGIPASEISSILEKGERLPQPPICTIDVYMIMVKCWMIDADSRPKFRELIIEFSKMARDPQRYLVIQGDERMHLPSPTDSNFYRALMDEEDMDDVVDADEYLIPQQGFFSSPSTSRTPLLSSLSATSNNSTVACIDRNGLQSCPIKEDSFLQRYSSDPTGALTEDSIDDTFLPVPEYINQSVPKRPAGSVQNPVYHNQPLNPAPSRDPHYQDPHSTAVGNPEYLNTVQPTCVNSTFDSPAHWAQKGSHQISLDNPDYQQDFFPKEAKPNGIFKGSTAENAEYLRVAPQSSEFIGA
Chain of Ba/F3(EGFR^L858R/T790M/C797S) cells (P00533 whole entry T790M/C797S/L858R): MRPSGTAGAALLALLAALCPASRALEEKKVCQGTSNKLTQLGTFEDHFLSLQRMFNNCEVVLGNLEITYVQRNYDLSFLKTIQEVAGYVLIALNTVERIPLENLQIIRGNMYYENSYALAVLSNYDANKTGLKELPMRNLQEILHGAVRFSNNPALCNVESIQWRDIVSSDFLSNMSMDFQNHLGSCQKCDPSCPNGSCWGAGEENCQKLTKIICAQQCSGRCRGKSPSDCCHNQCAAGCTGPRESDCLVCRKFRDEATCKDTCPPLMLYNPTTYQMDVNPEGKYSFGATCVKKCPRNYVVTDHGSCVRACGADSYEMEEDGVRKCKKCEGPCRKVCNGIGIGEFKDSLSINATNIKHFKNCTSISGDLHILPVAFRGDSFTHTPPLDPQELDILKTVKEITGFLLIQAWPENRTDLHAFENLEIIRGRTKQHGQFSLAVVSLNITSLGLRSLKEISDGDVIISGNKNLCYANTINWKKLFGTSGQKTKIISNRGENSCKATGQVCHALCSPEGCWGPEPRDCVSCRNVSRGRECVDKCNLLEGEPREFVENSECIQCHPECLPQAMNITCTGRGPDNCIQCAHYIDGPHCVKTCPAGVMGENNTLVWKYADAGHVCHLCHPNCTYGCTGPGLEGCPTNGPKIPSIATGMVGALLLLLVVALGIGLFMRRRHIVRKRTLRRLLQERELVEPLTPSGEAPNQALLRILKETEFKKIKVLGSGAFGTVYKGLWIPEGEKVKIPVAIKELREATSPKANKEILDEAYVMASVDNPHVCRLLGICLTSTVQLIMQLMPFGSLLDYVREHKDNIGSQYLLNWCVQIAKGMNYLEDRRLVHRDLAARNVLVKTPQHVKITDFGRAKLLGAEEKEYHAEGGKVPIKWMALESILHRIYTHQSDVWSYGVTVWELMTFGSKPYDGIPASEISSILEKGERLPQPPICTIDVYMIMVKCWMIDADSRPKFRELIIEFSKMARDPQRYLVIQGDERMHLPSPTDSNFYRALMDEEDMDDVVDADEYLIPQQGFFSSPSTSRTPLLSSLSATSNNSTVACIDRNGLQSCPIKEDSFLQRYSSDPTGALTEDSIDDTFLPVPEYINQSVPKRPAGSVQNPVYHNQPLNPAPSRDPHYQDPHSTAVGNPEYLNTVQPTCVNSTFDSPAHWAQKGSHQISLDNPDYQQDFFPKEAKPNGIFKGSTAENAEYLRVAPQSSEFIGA

SMILES | GI50 [1] [nM] | GI50 [2] [nM] | GI50 (Ba/F3(EML4-ALK) cells) [nM]
COc1cc(N2CCC3(CCN(CCCCCCCOc4cccc5c4C(=O)N(C4CCC(=O)NC4=O)C5=O)CC3)CC2)c(C)cc1Nc1ncc(Br)c(Nc2ccc3nccnc3c2P(C)(C)=O)n1 (stereo not shown) [Compound C47, 4-((7-(9-(4-((5-bromo-4-((5-(dimethylphosphoryl)quinoxalin-6-yl)amino)pyrimidin-2-yl)amino)-5-methoxy-2-methylphenyl)-3,9-diazaspiro[5.5]undecan-3-yl)heptyl)oxy)-2-(2,6-dioxopiperidin-3-yl)isoindoline-1,3-dione] | 101 to 200 | 101 to 200 | 101 to 200
COc1cc(N2CCC(N3CCN(CCCCCC#Cc4ccc5c(c4)CN(C4CCC(=O)NC4=O)C5=O)CC3)CC2)c(C)cc1Nc1ncc(Br)c(Nc2ccc3nccnc3c2P(C)(C)=O)n1 (stereo not shown) [Compound C163, 3-(5-(7-(4-(1-(4-((5-bromo-4-((5-(dimethylphosphoryl)quinoxalin-6-yl)amino)pyrimidin-2-yl)amino)-5-methoxy-2-methylphenyl)piperidin-4-yl)piperazin-1-yl)hept-1-yn-1-yl)-1-oxoisoindolin-2-yl)piperidine-2,6-dione] | 1 to 100 |  | 1 to 100
COc1cc(N2CCC3(CCN(CCCCCCC#Cc4cccc5c4CN(C4CCC(=O)NC4=O)C5=O)CC3)CC2)c(C)cc1Nc1ncc(Br)c(Nc2ccc3nccnc3c2P(C)(C)=O)n1 (stereo not shown) [Compound C172, 3-(4-(8-(9-(4-((5-bromo-4-((5-(dimethylphosphoryl)quinoxalin-6-yl)amino)pyrimidin-2-yl)amino)-5-methoxy-2-methylphenyl)-3,9-diazaspiro[5.5]undecan-3-yl)oct-1-yn-1-yl)-1-oxoisoindolin-2-yl)piperidine-2,6-dione] | 1 to 100 |  | 1 to 100
COc1cc(N2CCC3(CCN(CCCCCCCC#Cc4cccc5c4CN(C4CCC(=O)NC4=O)C5=O)CC3)CC2)c(C)cc1Nc1ncc(Br)c(Nc2ccc3nccnc3c2P(C)(C)=O)n1 (stereo not shown) [Compound C173, 3-(4-(9-(9-(4-((5-bromo-4-((5-(dimethylphosphoryl)quinoxalin-6-yl)amino)pyrimidin-2-yl)amino)-5-methoxy-2-methylphenyl)-3,9-diazaspiro[5.5]undecan-3-yl)non-1-yn-1-yl)-1-oxoisoindolin-2-yl)piperidine-2,6-dione] | 1 to 100 |  | 1 to 100
COc1cc(N2CCC(N3CCN(CCCOCC#Cc4cccc5c4CN(C4CCC(=O)NC4=O)C5=O)CC3)CC2)ccc1Nc1ncc(Cl)c(Nc2ccccc2P(C)(C)=O)n1 (stereo not shown) [Compound C181, 3-(4-(3-(3-(4-(1-(4-((5-chloro-4-((2-(dimethylphosphoryl)phenyl)amino)pyrimidin-2-yl)amino)-3-methoxyphenyl)piperidin-4-yl)piperazin-1-yl)propoxy)prop-1-yn-1-yl)-1-oxoisoindolin-2-yl)piperidine-2,6-dione] | 1 to 100 |  | 1 to 100
COc1cc(N2CCC(N3CCN(CCCCOCC#Cc4cccc5c4CN(C4CCC(=O)NC4=O)C5=O)CC3)CC2)ccc1Nc1ncc(Cl)c(Nc2ccccc2P(C)(C)=O)n1 (stereo not shown) [Compound C182, 3-(4-(3-(4-(4-(1-(4-((5-chloro-4-((2-(dimethylphosphoryl)phenyl)amino)pyrimidin-2-yl)amino)-3-methoxyphenyl)piperidin-4-yl)piperazin-1-yl)butoxy)prop-1-yn-1-yl)-1-oxoisoindolin-2-yl)piperidine-2,6-dione] | 1 to 100 |  | 1 to 100
COc1cc(N2CCC(N3CCN(CCOCC#Cc4cc(F)cc5c4CN(C4CCC(=O)NC4=O)C5=O)CC3)CC2)ccc1Nc1ncc(Cl)c(Nc2ccccc2P(C)(C)=O)n1 (stereo not shown) [Compound C184, 3-(4-(3-(2-(4-(1-(4-((5-chloro-4-((2-(dimethylphosphoryl)phenyl)amino)pyrimidin-2-yl)amino)-3-methoxyphenyl)piperidin-4-yl)piperazin-1-yl)ethoxy)prop-1-yn-1-yl)-6-fluoro-1-oxoisoindolin-2-yl)piperidine-2,6-dione] | 1 to 100 |  | 1 to 100
COc1cc(N2CCC(N3CCN(CCCCC#Cc4cccc5c4CN(C4CCC(=O)NC4=O)C5=O)CC3)CC2)c(C)cc1Nc1ncc(Br)c(Nc2ccc3nccnc3c2P(C)(C)=O)n1 (stereo not shown) [Compound C186, 3-(4-(6-(4-(1-(4-((5-bromo-4-((5-(dimethylphosphoryl)quinoxalin-6-yl)amino)pyrimidin-2-yl)amino)-5-methoxy-2-methylphenyl)piperidin-4-yl)piperazin-1-yl)hex-1-yn-1-yl)-1-oxoisoindolin-2-yl)piperidine-2,6-dione] | 1 to 100 |  | 1 to 100
COc1cc(N2CCC(N3CCN(CCCCCCCCC#Cc4cccc5c4CN(C4CCC(=O)NC4=O)C5=O)CC3)CC2)c(C)cc1Nc1ncc(Br)c(Nc2ccc3nccnc3c2P(C)(C)=O)n1 (stereo not shown) [Compound C188, 3-(4-(10-(4-(1-(4-((5-bromo-4-((5-(dimethylphosphoryl)quinoxalin-6-yl)amino)pyrimidin-2-yl)amino)-5-methoxy-2-methylphenyl)piperidin-4-yl)piperazin-1-yl)dec-1-yn-1-yl)-1-oxoisoindolin-2-yl)piperidine-2,6-dione] | 1 to 100 |  | > 300
COc1cc(N2CCC3(CCN(CCCCCCCCC#Cc4cccc5c4CN(C4CCC(=O)NC4=O)C5=O)CC3)CC2)c(C)cc1Nc1ncc(Br)c(Nc2ccc3nccnc3c2P(C)(C)=O)n1 (stereo not shown) [Compound C189, 3-(4-(10-(9-(4-((5-bromo-4-((5-(dimethylphosphoryl)quinoxalin-6-yl)amino)pyrimidin-2-yl)amino)-5-methoxy-2-methylphenyl)-3,9-diazaspiro[5.5]undecan-3-yl)dec-1-yn-1-yl)-1-oxoisoindolin-2-yl)piperidine-2,6-dione] | 1 to 100 |  | 101 to 200

Continued, values first:

GI50 [1] [nM] | GI50 [2] [nM] | GI50 (Ba/F3(EML4-ALK) cells) [nM] | SMILES
1 to 100 |  | 101 to 200 | COc1cc(N2CCC3(CCN(CCCCCC#Cc4ccc5c(c4)CN(C4CCC(=O)NC4=O)C5=O)CC3)CC2)c(C)cc1Nc1ncc(Br)c(Nc2ccc3nccnc3c2P(C)(C)=O)n1 (stereo not shown) [Compound C191, 3-(5-(7-(9-(4-((5-bromo-4-((5-(dimethylphosphoryl)quinoxalin-6-yl)amino)pyrimidin-2-yl)amino)-5-methoxy-2-methylphenyl)-3,9-diazaspiro[5.5]undecan-3-yl)hept-1-yn-1-yl)-1-oxoisoindolin-2-yl)piperidine-2,6-dione]
1 to 100 |  | 1 to 100 | COc1cc(N2CCC(N3CCN(CCCCCCCC#Cc4ccc5c(c4)CN(C4CCC(=O)NC4=O)C5=O)CC3)CC2)ccc1Nc1ncc(Cl)c(Nc2ccccc2P(C)(C)=O)n1 (stereo not shown) [Compound C195, 3-(5-(9-(4-(1-(4-((5-chloro-4-((2-(dimethylphosphoryl)phenyl)amino)pyrimidin-2-yl)amino)-3-methoxyphenyl)piperidin-4-yl)piperazin-1-yl)non-1-yn-1-yl)-1-oxoisoindolin-2-yl)piperidine-2,6-dione]
1 to 100 |  | 1 to 100 | COc1cc(N2CCC(N3CCN(CCCCCCCCC#Cc4ccc5c(c4)CN(C4CCC(=O)NC4=O)C5=O)CC3)CC2)ccc1Nc1ncc(Cl)c(Nc2ccccc2P(C)(C)=O)n1 (stereo not shown) [Compound C196, 3-(5-(10-(4-(1-(4-((5-chloro-4-((2-(dimethylphosphoryl)phenyl)amino)pyrimidin-2-yl)amino)-3-methoxyphenyl)piperidin-4-yl)piperazin-1-yl)dec-1-yn-1-yl)-1-oxoisoindolin-2-yl)piperidine-2,6-dione]
1 to 100 |  | 1 to 100 | COc1cc(N2CCC3(CCN(CCCCCCCOc4cccc5c4CN(C4CCC(=O)NC4=O)C5=O)CC3)CC2)c(C)cc1Nc1ncc(Br)c(Nc2ccc3nccnc3c2P(C)(C)=O)n1 (stereo not shown) [Compound C211, 3-(4-((7-(9-(4-((5-bromo-4-((5-(dimethylphosphoryl)quinoxalin-6-yl)amino)pyrimidin-2-yl)amino)-5-methoxy-2-methylphenyl)-3,9-diazaspiro[5.5]undecan-3-yl)heptyl)oxy)-1-oxoisoindolin-2-yl)piperidine-2,6-dione]
1 to 100 |  | 1 to 100 | COc1cc(N2CCC3(CCN(CCOCC#Cc4cc(F)cc5c4CN(C4CCC(=O)NC4=O)C5=O)CC3)CC2)c(C)cc1Nc1ncc(Br)c(Nc2ccc3nccnc3c2P(C)(C)=O)n1 (stereo not shown) [Compound C310, 3-(4-(3-(2-(9-(4-((5-bromo-4-((5-(dimethylphosphoryl)quinoxalin-6-yl)amino)pyrimidin-2-yl)amino)-5-methoxy-2-methylphenyl)-3,9-diazaspiro[5.5]undecan-3-yl)ethoxy)prop-1-yn-1-yl)-6-fluoro-1-oxoisoindolin-2-yl)piperidine-2,6-dione]
